# Measurements taken from patent US20260048093A1, “COMBINATION THERAPY OF MIXED HERBAL EXTRACT AND DOCETAXEL FOR PREVENTING OR TREATING CANCER” (JAEIN R&P INC., priority 2022, published 2026).
# Legend:
# [1] = tested on: MDA-MB-231 (TNBC, highly metastatic); assay: MTT assay, viability and combination index in MDA-MB-231 cells; format: cell-based; conditions: 24 hours, SH003 100, 300, 500 μg/mL, DTX 1, 10, 100, 1000 nM
# Experimental: (§3) Thereafter, a 3-(4,5-Dimethylthiazol-2-yl)-2,5-diphenyltetrazolium bromide (MTT) reagent was treated in each cell, the cells were further incubated for 4 hours, and then a supernatant was removed and 100 μL of dimethyl sulfoxide (DMSO) was added. Finally, absorbance was measured at a wavelength of 590 nm and the absorbance value was compared with a control group which was not treated with any material.
# Fa indicates the inhibition rate.
# BT-20 tumor xenograft = BT-20 tumor xenograft mouse model; format: in vivo, BALB/c nude mice; conditions: BT-20 xenograft mice
# Experimental: The effect of the combined administration of the mixed extract of the present invention and docetaxel was investigated in an animal model. All animal studies were approved by Kyung Hee University-Institutional Animal Care & Use Committee (KHU-IACUC). Five-week-old female BALB/c nude mice were purchased from Nara Biotech (Seoul, Republic of Korea). The mice were allowed free access to food and water and were housed in appropriate isolation cages at room temperature (22-25° C.) under a 12-h light/12-h dark cycle in the absence of pathogens. In order to establish a tumor xenograft mouse model, BT-20 cell suspension (1×10^7 cells) in 100 μL PBS was subcutaneously inoculated into the right flank of the mice. The mice were divided into four groups: control group (n=3), SH003 (n=4), DTX (n=4), and SH003+DTX (n=5). When the tumor volume reached 100 mm^3, the drug was injected. DTX was administered intravenously via the tail vein once a week at 15.277 mg/kg, while DMSO was administered to the control or SH003 single-administration group. SH003 was administered orally at 557.569 mg/kg three times a week, while saline was administered to the control or DTX single-administration group. The body weight was measured three times a week, and tumor volume was analyzed daily for 17 days.
# Subsequently, the mice were euthanized and the tumors were isolated. […]
# [2] = tested on: gastric cancer cell line AGS; assay: Cell survival rate and combination index in AGS cells; format: cell-based
# [3] = tested on: H460 non-small cell lung cancer cell line; assay: WST colorimetric assay, viability and combination index in H460 cells; format: cell-based; conditions: 24, 48 and 72 hours
# Experimental: Specifically, a total of 10^5 cells per well were seeded in a 6-well plate before treatment. […] After treatment, the cells were incubated with WST for 1 hour, and then the absorbance was measured at 450 nm using an ELISA reader (Molecular Devices, Palo Alto, CA, USA).
# Fa indicates the inhibition rate.
# H460 cells = assay: Annexin V/7-AAD apoptosis in H460 cells; format: cell-based; conditions: 24 hours
# Experimental: (§1) In order to investigate the effect of increasing apoptosis by combined administration of the mixed extract of the present invention and docetaxel, Annexin V/7-AAD double staining was used for analysis.
# (§2) Specifically, H460 and A549 cells were stained with Annexin V and then stained with 7-AAD in the dark for 15 minutes at room temperature, and then the stained cells were detected by FACSCalibur (BD Biosciences, San Jose, CA, USA), and the apoptotic cells were analyzed using CellQuest Pro version 5.2 (BD Biosciences, San Jose, CA, USA) software. The results are illustrated in FIG. 3.
# H460 tumor xenograft = H460 tumor xenograft mouse model; format: in vivo, Balb/c nude mice; conditions: H460 xenograft mice
# Experimental: The effect of the combined administration of the mixed extract of the present invention and docetaxel was investigated in an animal model. All procedures of animal experimentation, including maintenance and euthanasia, were approved by Kyung Hee University Institutional Animal Care and Use Committee (KHU-IACUC-KHSASP-21-211). Five-week-old male Balb/c nude mice were purchased from Nara Biotech (Seoul, Republic of Korea) and acclimated to a 12-h light/dark cycle at 22-23° C. and 40-60% humidity. The mice were divided into four groups: control (n=3), SH003 administration (n=4), DTX administration (n=4), and combined administration (n=5). In order to establish a tumor xenograft mouse model, H460 cell suspension (1×10^7 cells) in 100 μL PBS was subcutaneously inoculated into the right flank of the mice. Thereafter, 200 μL of SH003 (557.569 mg/kg) was administered orally three times a week, and 50 μL DTX (15.277 mg/kg) was administered intravenously via the tail vein once a week for 3 weeks. Saline and DMSO were used as vehicles. The body weight was measured three times a week, and tumor volume was analyzed daily. On day 21, the mice were sacrificed using carbon dioxide and cervical dislocation was performed. Tumor tissues were isolated after euthanasia. […]
# [4] = tested on: BT-20 (TNBC, triple-negative breast cancer, non-invasive); assay: MTT assay, viability and combination index in BT-20 cells; format: cell-based; conditions: 24 hours, SH003 100, 300, 500 μg/mL, DTX 1, 10, 100, 1000 nM
# Experimental: as §3
# Fa indicates the inhibition rate.
# A549 cells = assay: Annexin V/7-AAD apoptosis in A549 cells; format: cell-based; conditions: 24 hours
# Experimental: as §1, §2
# [5] = tested on: A549 non-small cell lung cancer cell line; assay: WST colorimetric assay, viability in A549 cells; format: cell-based; conditions: 24, 48 and 72 hours
# Experimental: Specifically, a total of 10^5 cells per well were seeded in a 6-well plate before treatment. After 24 hours, the cells were treated with SH003 (100, 300, and 500 μg/mL), DTX (1, 10, 100, and 1000 nM), or a combination thereof for 24, 48, and 72 hours. […] After treatment, the cells were incubated with WST for 1 hour, and then the absorbance was measured at 450 nm using an ELISA reader (Molecular Devices, Palo Alto, CA, USA).
compound,measurement,setting,value
"CC(=O)O[C@@]12CO[C@@H]1C[C@H](O)[C@@]1(C)C(=O)[C@H](O)C3=C(C)[C@@H](OC(=O)[C@H](O)[C@@H](NC(=O)OC(C)(C)C)c4ccccc4)C[C@@](O)([C@@H](OC(=O)c4ccccc4)[C@H]21)C3(C)C [DTX, Docetaxel]",viability of MDA-MB-231 cells,[1],decreased the viability
same,body weight,BT-20 tumor xenograft,did not have an effect
same,AGS cell survival rate,[2],decreased in a concentration-dependent manner
same,H460 cell growth,[3],inhibited H460 cell growth in a dose-dependent manner
same,apoptosis compared to the control group (in words),H460 cells,did not significantly affect
same,body weight,H460 tumor xenograft,did not have an effect
same,viability of BT-20 cells,[4],decreased the viability
same,apoptosis compared to the control group (in words),A549 cells,did not significantly affect
same,A549 cell growth,[5],inhibited A549 cell growth in a dose-dependent manner
